“Also recorded” adds a separate entry of the source.
What was measured:
[1] = biological target: ErbB3 on mouse skin endothelial cells (skin EC) (mouse) (UniProt Q61526); assay: cell-based or functional assay
[2] = system: skin EC; assay: MTT cell proliferation assay, skin EC; format: cell-based, mouse; conditions: increasing EGF
Method: (§1) Cell proliferation. Cells (4×103) were plated in triplicates into 96 well plates and allowed to adhere overnight. The cells were then switched to serum free media containing growth factors and/or AG1478 at indicated concentrations. Cells were cultured for 72 hr and cell proliferation was determined by addition of 0.42 mg/ml of 3-(4,5-dimethylthiazol-2-yl)-2,5-diphenyltetrazolium bromide (MTT) reagent (Sigma-Aldrich) for 4 hr prior to harvesting. Media was removed and cells were solubilized in DMSO and absorbance was measured at 570 nm. The averages of the triplicates were calculated and cell proliferation was determined as the percentage of absorbance of treated cells to the untreated cells. All the experiments were at least performed twice.

[3] = system: A375SM tumor EC (melanoma EC); assay: MTT cell proliferation assay, tumor EC; format: cell-based, mouse
Method: as §1

[4] = system: Erk1/2; assay: Erk1/2 (MAPK) phosphorylation by western blotting in endothelial cells; format: cell-based, mouse
Method: (§2) Immunoprecipitation (IP) and western blotting (WB). […] Cells were also treated with the EGFR kinase inhibitor, AG1478 (Calbiochem, San Diego, Calif.), prepared in DMSO, fifteen minutes prior to growth factor stimulation. Immunoprecipitation (IP) and western blotting (WB) were performed as previously described (16). The antibodies used for IP and WB of ErbB1-4 were: SC-03, SC-284, SC-285, and SC-283 respectively (Santa Cruz Biotechnology, Santa Cruz, Calif.). Receptor phosphorylation was detected using anti-phosphotyrosine antibody (mAb 4G10; Upstate, Lake Placid, N.Y.). Analysis of phosphorylated—EGFR on lysates was performed using phospho-1068 EGFR (Cell Signaling Technologies, Beverly Mass.). In addition antibodies to GAPDH (Chemicon, Temecula, Calif.), (β-Actin (Sigma-Aldrich, St Louis, Mo.), phospho-Erk1-2 (New England Biolab, Beverly Mass.), and Erk1 (Santa Cruz Biotechnology) were purchased.

[5] = system: ErbB2; assay: ErbB2 phosphorylation by immunoprecipitation / western blotting in endothelial cells; format: cell-based, mouse
Method: as §2

[6] = biological target: T1, EGFR (Mus musculus, UniProt Q01279); assay: EGFR phosphorylation by immunoprecipitation / western blotting in endothelial cells; format: cell-based; conditions: for ligand-induced EGFR phosphorylation / activation: serum starved A375SM tumor EC, ligand 100 ng/ml
T1 construct: endogenous in cells; host or cells: mouse tumour EC isolated from A375SM melanoma, MDA-MB-231 breast carcinoma and liposarcoma xenografts; mouse skin EC as control
Method: as §2, with “The antibodies used for IP and WB of ErbB1-4 were: SC-03, SC-284, SC-285, and SC-283 respectively (Santa Cruz Biotechnology, Santa Cruz, Calif.).” left out, “Analysis of phosphorylated—EGFR on lysates was performed using phospho-1068 EGFR (Cell Signaling Technologies, Beverly Mass.).” left out

[7] = system: A375SM melanoma xenograft; assay: A375SM melanoma xenograft model in nude mice; format: in vivo, mouse; conditions: EGFR-negative A375SM xenografts in mice, daily treatment, 4 weeks
Method: A375SM melanoma tumor cells were injected subcutaneously into nude mice. When the tumors reached an average volume of 200 mm^3 the mice were randomized into a control and Iressa treatment groups. The mice were treated daily p.o. with gefitinib (150 mg/kg) or with the vehicle. Tumor volumes were measured every 4 days.

NRG1β extra-cellular domain (R&D Systems) (ligand)
growth inhibition (MTT assay) of skin EC at 5 ng/ml (0.2 nM) NRG1β [1]: 25%

EGF: epidermal growth factor, ligand that binds only to EGFR
effect on cell proliferation (in words) [2]: did not respond to EGF
increase in cell proliferation ([3]; tumor EC, 20 ng/ml of EGF, MTT): 2.5 fold
effect on cell proliferation (in words) ([3]; tumor EC, increasing EGF, MTT): dose-dependent increase in cell proliferation
phospho-Erk1/2 levels in the presence of EGF ([4]; A375SM tumor EC): increase in phospho-Erk1/2 levels
MAPK activation by EGF ([4]; MDA-MB-231 breast carcinoma EC): subsequent MAPK activation
MAPK activation by EGF ([4]; liposarcoma EC): subsequent MAPK activation
EGF-induced ErbB2 phosphorylation (p-ErbB2) ([5]; A375SM tumor EC): increased ErbB2 phosphorylation (p-ErbB2) in tumor EC
ErbB2 activation in response to EGF ([5]; MDA-MB-231 breast carcinoma EC): ErbB2 was also activated
ErbB2 activation in response to EGF ([5]; liposarcoma EC): ErbB2 was also activated

COc1cc2ncnc(Nc3cccc(Cl)c3)c2cc1OC [AG1478, 4-(3-Chloroanillino)-6,7-dimethoxyquinazoline, reference compound]
effect on EGF-induced phosphorylation of EGFR ([6]; skin EC, inhibitor pretreatment, then EGF 100 ng/ml): had no effect on skin EC
inhibition of EGF-induced phosphorylation of EGFR ([6]; tumor EC (A375SM melanoma EC), inhibitor pretreatment, then EGF 100 ng/ml): inhibited EGF-induced phosphorylation of EGFR in tumor EC in a dose-dependent manner; also recorded: inhibits EGFR activation on melanoma EC
inhibition of EGF-induced increase in tumor EC cell proliferation ([3]; inhibitor at 1 μM, increasing EGF, MTT 72 hr): completely inhibit
inhibition of EGF-induced tumor EC proliferation ([3]; tumor (melanoma) EC, concentration not stated / dose dependent): completely inhibits EGF dependent proliferation

TGFα: transforming growth factor-alpha, EGFR ligand
ligand-induced EGFR phosphorylation / activation [6]: promoted EGFR activation in tumor EC

HB-EGF: Heparin binding-EGF like growth factor, binds EGFR and ErbB4
ligand-induced EGFR phosphorylation / activation [6]: promoted EGFR activation in tumor EC

COc1cc2ncnc(Nc3ccc(F)c(Cl)c3)c2cc1OCCCN1CCOCC1 [Iressa, Gefitinib]
effect on tumor growth (in words) [7]: inhibits EGFR negative A375SM melanoma xenograph growth
effect on tumor growth (in words) ([7]; listed as geftinib): effective against EGFR-negative tumors in mice

BTC: betacellulin, binds EGFR and ErbB4
ligand-induced EGFR phosphorylation / activation [6]: promoted EGFR activation in tumor EC
